Laboratory results taken from patent US5428019A, “Bombesin analogs” (Merrell Dow Pharmaceuticals Inc., priority 1994, dated 1995).
Where a SMILES comes first, the peptide text is derived from it. [ ]: non-standard residue; d: D form. The star is where a group is joined. Pheψ(CH2S)LeuNH2 = CC(C)C[C@H](SC[C@H](Cc1ccccc1)N*)C(N)=O; pGlu = O=C1CC[C@@H](C(=O)O)N1

Columns and labels:
Bombesin Receptor = target: T1, Bombesin Receptor (Mus musculus, UniProt P21729); assay: Phosphatidylinositol turnover in chopped mouse pancreas; type: cell-based; set-up: key to PI Turnover Agonist: (+) represents agonist activity; (-) indicates no agonist activity
T1 construct: Pancreata from mice were chopped at 350 μm with a tissue chopper and pooled; from tissue; host or cells: chopped mouse pancreas
T1 sequence (P21729 whole entry): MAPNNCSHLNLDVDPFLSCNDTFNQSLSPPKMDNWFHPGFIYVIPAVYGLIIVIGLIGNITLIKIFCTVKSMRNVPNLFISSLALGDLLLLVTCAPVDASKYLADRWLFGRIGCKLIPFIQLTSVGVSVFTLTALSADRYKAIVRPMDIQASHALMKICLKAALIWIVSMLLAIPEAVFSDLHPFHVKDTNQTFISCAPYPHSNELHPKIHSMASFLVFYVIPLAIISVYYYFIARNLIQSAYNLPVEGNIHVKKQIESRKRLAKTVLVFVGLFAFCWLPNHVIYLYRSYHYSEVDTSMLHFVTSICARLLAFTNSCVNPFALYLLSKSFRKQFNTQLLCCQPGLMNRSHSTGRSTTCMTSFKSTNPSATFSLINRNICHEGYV
Method: Pancreata from mice were chopped at 350 μm with a tissue chopper and pooled. The chopped tissue was washed twice with oxygenated Krebs-Hepes, then incubated for 30 minutes in 37° C. oxygenated Krebs-Hepes buffer with fresh buffer after 15 minutes. The tissue was then incubated in this buffer containing 200 μCi of [^3 H] inositol at 37° C. for 1 hour. The tissue was then washed twice and incubated for another 30 minutes in oxygenated Krebs-Hepes (containing 10 mM Li^+) at 37° C. with a fresh buffer change after 15 minutes. Portions of the tissue mass (approximately 10 mg per assay tube) were then placed in Li^+ buffer with protease inhibitors, (40 μg/ml bacitracin, 4 μg/ml leupeptin, 4 μg/ml chymostatin, 8 μg/ml thiorphan), 0.1% BSA, and 0.1-10 μM peptide in a final volume of 250 μl. After 60 minutes at room temperature, the phosphatidylinositol turnover was terminated by the addition of 940 μl chloroform:methanol (1:2), followed by 310 μl chloroform, followed by 310 μl water. Each tube was then vortexed for 5 seconds and then centrifuged at 2500 x g for 10 minutes to separate the phases. 50 μl of the bottom phase (chloroform) was withdrawn from each tube and placed in a counting vial, dried, and counted in scintillation fluid. 900 μl of the top (aqueous) phase were then mixed with 2.1 ml water and loaded onto a 0.5 ml Biorad AG-1X8 (formate) ion exchange column. The material on the columns was washed in order with: 1) 10 ml of water 2) 5 ml of 5 mM disodium tetraborate/60 mM sodium formate 3) 10 ml of 1 M ammonium formate in 0.1 M formic acid. The final (third) wash was collected and one ml was mixed with 14 ml of Bio-Safe scintillant and counted. The ratio of these counts (total inositol phosphates) to the corresponding organic phase counts (inositol incorporated into the tissue) was then calculated for each sample. The ratios in the presence of test compound and/or standards were then compared to the ratios for control tubes (i.e., no stimulating agonist). The abilities of test compounds to stimulate phosphatidyl-inositol turnover were determined with the aid of a computer program. […] The ordinate (y-axis) indicates the observed PI turnover as a percentage of control. Values are mean±standard error of triplicate determinations.

[1] = tested on: cell surface receptors that bind bombesin; conditions: background section; read-out: KD of high-affinity cell surface receptors that bind bombesin; cited from earlier work
bombesin/GRP receptor = target: T2, bombesin/GRP receptor (Mus musculus, UniProt P21729); assay: Competition for 125I-GRP binding to murine pancreatic membranes; conditions: Kd (nM), competitive binding, mouse pancreas; averages of multiple experiments
T2 construct: The pancreata from one or more mice were pooled and homogenized; from tissue; host or cells: mouse pancreas membranes
T2 sequence (P21729 whole entry): as above
Method: The pancreata from one or more mice were pooled and homogenized in 50 mM HEPES (pH 7.4) containing 120 mM NaCl, 5 mM KCl, 1 mM EDTA and protease inhibitors (1 μg/ml aprotinin, leupeptin, pepstatin; 4 μg/ml bacitracin, antipain, bestatin; 100 μM PMSF) at 4° C. and centrifuged at 37,500 X g for 15 minutes. The pellet was resuspended in 50 mM HEPES (pH 7.4) containing 10 mM EDTA, 300 mM KCl, and protease inhibitors, and then incubated for 30 minutes at 4° C. The suspension was centrifuged as above and the pellet was washed two times in 50 mM HEPES (pH 7.4) containing 8 μg/ml thiorphan and protease inhibitors, and again centrifuged. The tissue was then resuspended in incubation buffer (1 ml per 4 mg pancreas) and incubated for 15 minutes at room temperature, then 250 μl were added to each assay tube to commence the assay. […] The assay was allowed to proceed to equilibrium for 90 minutes at room temperature. After this time, the contents of each tube was rapidly filtered over Whatman GF/B filters presoaked in 0.1% polyethyleneimine and the filters were rapidly washed three times with ice-cold 50 mM HEPES (pH 7.4). Filter-bound radioactivity was quantitated in a gamma counter. […] Affinity and maximal binding were calculated with LIGAND (Biosoft, Cambridge, UK) (FIGS. 1 and FIG. 2)
The abscissa (x-axis) logarithmically indicates the concentration of agonists being tested.

Compound | PI Turnover Agonist (Bombesin Receptor) | Kd [1] [nM] | Kd (bombesin/GRP receptor) [nM] | PI Turnover % Inhibition (Bombesin Receptor; antagonist activity, referenced to the stimulation produced by 100 nM GRP) [%]
CSCC[C@H](NC(=O)[C@H](CC(C)C)NC(=O)[C@H](Cc1cnc[nH]1)NC(=O)CNC(=O)[C@@H](NC(=O)[C@H](C)NC(=O)[C@H](Cc1c[nH]c2ccccc12)NC(=O)[C@H](CCC(N)=O)NC(=O)[C@H](CC(N)=O)NC(=O)CNC(=O)[C@H](CC(C)C)NC(=O)[C@H](CCCN=C(N)N)NC(=O)[C@H](CCC(N)=O)NC(=O)[C@@H]1CCC(=O)N1)C(C)C)C(N)=O [Bombesin, pGlu--Gln--Arg--Leu--Gly--Asn--Gln--Trp--Ala--Val--Gly--His--Phe--Met--NH2] | + | 1 | – | –
CC(C)C[C@H](NC(=O)[C@H](CCCNC(=N)N)NC(=O)[C@H](CCC(N)=O)NC(=O)[C@@H]1CCC(=O)N1)C(=O)NCC(=O)N[C@@H](CC(N)=O)C(=O)N[C@@H](CCC(N)=O)C(=O)N[C@@H](Cc1c[nH]c2ccccc12)C(=O)N[C@@H](C)C(=O)N[C@H](C(=O)NCC(=O)N[C@@H](Cc1c[nH]cn1)C(=O)N[C@H](CS[C@@H](CC(C)C)C(N)=O)Cc1ccccc1)C(C)C [[Phe^13 .psi.[CH2 S]Leu^14 bombesin, pGlu--Gln--Arg--Leu--Gly--Asn--Gln--Trp--Ala--Val--Gly--His--Phe.psi.[CH2 S]Leu--NH2] ([pGlu]QRLGNQWAVGH-{Pheψ(CH2S)LeuNH2}) | – | – | 2.8 | 54
